In US7928078B2, “Conjugates of immune cell specific macrolide compounds with anti-inflammatory compounds for improved cellular targeting of anti-inflammatory therapy” (GlaxoSmithKline Istrazivacki Centar Zagreb D.O.O., priority 2001, dated 2011):

What was measured:
[1] = test system: mouse T-cell hybridoma 13; assay: Assay of inhibition of mouse T-cell hybridoma 13 proliferation as a result of apoptose induction; format: cell-based; details: [3H] thymidine incorporation
Procedure: Assay of Inhibition of Mouse T-Cell Hybridoma 13 Proliferation as a Result of Apoptose Induction
In a 96-well plate triplicates of test steroid dilution in RPMI medium (Immunoloski zavod) with […] were performed. To the solutions of compounds 20 000 cells per well were added and incubated overnight at 37° C. in an atmosphere with 5% CO2, then 1 μCi of [^3H] thymidine (Pharmacia) was added and it was incubated for additional 3 hours. The cells were harvested by sucking over GF/C filter (Packard). Onto each well 30 μl of Microscynt O scintillation liquid (Packard) were added and the incorporated radioactivity was measured on a β-scintillation counter (Packard). The specifity of apoptose induction by glucocorticoids was proven by antagonising the proliferation inhibition with mifepristone (Sigma).

[2] = test system: OVA-induced lung eosinophilia; assay: Model of lung eosinophilia in mice; format: in vivo, Balb/C mice; details: daily i.n. or i.p., different doses, 48 hours after OVA, t-test, p<0.05
Procedure: Model of Lung Eosinophilia in Mice
Male Balb/C mice with a body weight of 20-25 g were randomly divided into groups. They were sensibilized by an i.p. injection of ovalbumine (OVA, Sigma) on zero day and on the fourteenth day. On the twentieth day the mice were subjected to a provocative test by i.n. application of OVA (positive control or test groups) or PBS (negative control). 48 hours after i.n. application of OVA, the animals were anesthetized and the lungs were rinsed with 1 ml of PBS. The cells were separated on Cytospin 3 cytocentrifuge (Shandon). The cells were stained in Diff-Quick (Dade) and the percentage of eozinophiles was determined by differential counting of at least 100 cells.
Fluticasone and beclomethasone were used as standard substances under positive and negative control.
The compounds were administered daily i.n. or i.p. in different doses 2 days before provocative test and up to the completion of the test.

[3] = Influence of compounds on the thymus weight; details: rats, s.c. implanted impregnated pellets, 7 days
Description: Influence of Compounds on the Thymus Weight
Male Sprague Dawley rats with a body weight of 200 g were randomly divided into groups of six animals. To anaesthetized animals sterilized weighed pellets of filter paper were implanted s.c. dorsally. The pellets in the control group were impregnated with acetone, whereas in the test groups they were impregnated either with the standard (prednisolone, Sigma) or with the compound 10. After 7 days the animals were put to sleep and their thymuses were isolated and weighed. The systemic effects were estimated by comparing the thymus weight in the test and control groups.

[4] = molecular target: T1, alpha isoform of human glucocorticoid receptor (Homo sapiens, UniProt P04150); assay: Assay of binding to the human glucocorticoid receptor ([3H] dexamethasone competition in transfected COS-1 cells); details: 24 nM [3H] dexamethasone
T1 construct: expressed in transfected cells; host or cells: COS-1 cells, transient transfection with pcDNA3.1 hygro(+) carrying the GR alpha cDNA
T1 sequence (P04150 1-777): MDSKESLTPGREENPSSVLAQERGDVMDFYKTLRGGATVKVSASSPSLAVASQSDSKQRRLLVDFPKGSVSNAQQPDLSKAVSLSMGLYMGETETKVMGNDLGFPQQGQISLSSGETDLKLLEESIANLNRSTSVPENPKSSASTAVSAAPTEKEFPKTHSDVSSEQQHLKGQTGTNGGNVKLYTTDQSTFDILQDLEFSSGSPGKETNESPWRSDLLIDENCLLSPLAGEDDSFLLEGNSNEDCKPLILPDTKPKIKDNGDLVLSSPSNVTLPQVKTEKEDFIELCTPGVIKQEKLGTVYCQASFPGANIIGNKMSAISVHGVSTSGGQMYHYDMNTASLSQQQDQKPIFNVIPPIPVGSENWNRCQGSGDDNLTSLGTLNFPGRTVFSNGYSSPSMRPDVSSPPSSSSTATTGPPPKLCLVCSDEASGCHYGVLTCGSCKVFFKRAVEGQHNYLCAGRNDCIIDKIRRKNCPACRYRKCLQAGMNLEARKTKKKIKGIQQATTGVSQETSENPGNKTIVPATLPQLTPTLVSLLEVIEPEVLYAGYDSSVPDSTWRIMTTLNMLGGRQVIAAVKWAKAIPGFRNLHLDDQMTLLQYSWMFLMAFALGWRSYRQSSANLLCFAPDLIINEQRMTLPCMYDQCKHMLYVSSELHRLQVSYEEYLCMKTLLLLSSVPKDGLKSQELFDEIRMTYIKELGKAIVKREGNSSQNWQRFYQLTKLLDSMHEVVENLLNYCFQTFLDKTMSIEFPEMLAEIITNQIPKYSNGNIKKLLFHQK
Description: Assay of Binding to the Human Glucocorticoid Receptor
The gene for alpha isoform of human glucocorticoid receptor was cloned by reverse polymerase chain reaction. The total RNA was isolated from human peripheral blood lymphocites according to the instructions of the manufacturer (Qiagen), transcripted into cDNA with AMV reverse transcriptase (Roche) and the gene was multiplied by specific primers
The obtained reaction product was cloned into XhoI/BamHI site of Bluescript KS plasmid (Stratagene), subjected to sequencing by dideoxy fluorescent method with M13 and M13 rev primers (Mycrosynth) and then it was cloned into XhoI/BamHI site of pcDNA3.1 hygro(+)plasmid (Invitrogen). 1×10^5 COS-1 cells were seeded onto a 12-well plate (Falcon) in DMEM medium (Life Technologies) with 10% FBS (Biowhitaker) and cultivated up to a 70% confluence at 37° C. in an atmosphere with 5% CO2. The medium was removed and 1 μg of DNA, 7 μl of PLUS reagent and 2 μl of Lipofectamine (Life Technologies) in 500 μl DMEM were added per well. The cells were incubated at 37° C. in an atmosphere with 5% CO2 and after 5 hours the same volume of 20% FBS/DMEM was added. After 24 hours the medium was completely changed. 48 hours after the transfection, the test compounds in different concentrations and 24 nM [^3H] dexamethasone (Pharmacia) in DMEM medium were added. The cells were incubated for 90 minutes at 37° C. in an atmosphere with 5% CO2, washed three times with PBS buffer (Sigma), cooled to 4° C. (pH=7.4) and then lyzed in Tris buffer (pH=8.0) (Sigma) with 0.2% SDS (Sigma). After the addition of UltimaGold XR (Packard) scintillation liquid, the residual radioactivity was read in a Tricarb (Packard) β-scintillation counter.

[5] = test system: interleukin-2 production induced by the stimulation via CD3 receptor; assay: Assay of inhibition of interleukin-2 production; format: cell-based, mouse
Procedure: Assay of Inhibition of Interleukin-2 Production
Onto a 96-well plate (Nunc) 15 ng of 2C11 antibodies (Pharmingen) per well were added and left to adsorb in PBS buffer (pH=7.4) overnight at 4° C. PBS was removed, the plate was washed with RPMI medium and then 50,000 cells per well were added and incubated in the medium with and without a dilution of the test compounds. The concentration of IL-2 in the supernatant was measured by ELISA specific for mouse IL-2 (R&D Systems).

CHO and COS-1 cells = assay: Assay of steroid introduction into cells; format: cell-based; details: 1 μM radioactive compound, 90 minutes, 37° C.
Procedure: Assay of Steroid Introduction into Cells
CHO and COS-1 cells were cultivated up to confluence in 75 cm^2 flasks in Hamm F 12 medium (Life Technologies) with 10% FBS (CHO) or in DMEM medium with 10% FBS (COS-1). 1 μM of radioactive compound 10 with total 2 μCi activity was added onto the cells and it was incubated for 90 minutes at 37° C. in an atmosphere with 5% CO2. The cell supernatant was collected, the cells were lysed and then the radioactivity in the cell lysate as well as in the cell supernatant was read.

Structure (SMILES)	inhibition of cell hybridoma 13 proliferation [1]	number of eosinophiles in the lung rinse with regard to the positive control [2]	melting point	effect on thymus weights with regard to the control [3]	competition with radioactive dexamethasone in the binding site on the glucocorticoid receptor [4]	inhibition of interleukin-2 production [5]	accumulation in the cells versus cell supernatant (CHO and COS-1 cells)
CC[C@H]1OC(=O)[C@H](C)[C@@H](O[C@@H]2C[C@](C)(OC)[C@H](O)C(C)O2)[C@H](C)[C@@H](O[C@@H]2O[C@H](C)C[C@@H](N(C)C)[C@H]2O)[C@](C)(O)C[C@@H](C)CN(CCCNC(=O)[C@@]2(O)CCC3C4CCC5=CC(=O)CC[C@]5(C)C4[C@@H](O)C[C@@]32C)[C@H](C)[C@@H](O)[C@]1(C)O (stereo partly shown) [Compound 8]	demonstrated an inhibition	statistically significantly (t-test, p<0.05) reduced	144 °C				
C[C@]12C=CC(=O)C=C1CC[C@@H]1[C@@H]2[C@@H](O)C[C@@]2(C)[C@H]1CC[C@]2(O)C(=O)CO [standard, prednisolone]				statistically significantly reduced the thymus weights			
CC[C@H]1OC(=O)[C@H](C)[C@@H](O[C@@H]2C[C@](C)(OC)[C@H](O)C(C)O2)[C@H](C)[C@@H](O[C@@H]2O[C@H](C)C[C@@H](N(C)C)[C@H]2O)[C@](C)(O)C[C@@H](C)CN(CCCNC(=O)[C@@]2(O)[C@H](C)CC3C4C[C@H](F)C5=CC(=O)C=C[C@]5(C)[C@@]4(F)[C@@H](O)C[C@@]32C)[C@H](C)[C@@H](O)[C@]1(C)O (stereo partly shown) [Compound 9]	demonstrated an inhibition	statistically significantly (t-test, p<0.05) reduced	169 °C		able to compete with radioactive dexamethasone	demonstrate an inhibition	
CC[C@H]1OC(=O)[C@H](C)[C@@H](O)[C@H](C)[C@@H](O[C@@H]2O[C@H](C)C[C@@H](N(C)C)[C@H]2OC(=O)CCCCOC(=O)[C@@]2(O)[C@H](C)CC3C4C[C@H](F)C5=CC(=O)C=C[C@]5(C)[C@@]4(Cl)[C@@H](O)C[C@@]32C)[C@](C)(O)C[C@@H](C)CN(C)[C@H](C)[C@@H](O)[C@]1(C)O (stereo partly shown) [Compound 27]	demonstrated an inhibition		130 to 132 °C		able to compete with radioactive dexamethasone	demonstrate an inhibition	
CC[C@H]1OC(=O)[C@H](C)[C@@H](O[C@@H]2C[C@](C)(OC)[C@H](O)C(C)O2)[C@H](C)[C@@H](O[C@@H]2O[C@H](C)C[C@@H](N(C)C)[C@H]2O)[C@](C)(O)C[C@@H](C)CN(CCCNC(=O)[C@@]2(O)[C@H](C)CC3C4CCC5=CC(=O)C=C[C@]5(C)[C@@]4(F)[C@@H](O)C[C@@]32C)[C@H](C)[C@@H](O)[C@]1(C)O (stereo partly shown) [Compound 10]	demonstrated an inhibition	statistically significantly (t-test, p<0.05) reduced	170 to 175 °C		able to compete with radioactive dexamethasone	demonstrate an inhibition	able to accumulate in the cells in a greater concentration than in the supernatant
